According to patent US20240010681A1, “PEPTIDES AND METHODS OF USE” (REALTA LIFE SCIENCES, INC., priority 2020, published 2024):

Assays:
ICAM-5 = ICAM-5 (Homo sapiens, UniProt Q9UMF0); assay: ELISA-type plate binding assay, ICAM-5; details: buffer
[1] = Pharmacokinetics, metabolite profiles and excretion of [14C]-PIC1-dPEG24 after single IV dose; format: in vivo, rat; details: for Adjusted Peak Distribution (ROI %) in Rat Plasma: AUC0-24 hr pooled plasma, integrated together: M89/M160, M1444/M1701/M1573, M1288/M1217, M2244/M2357/M2470, M2768/PIC1-dPEG24; for estimated mean concentration within 0-24 hr in AUC0-24 hr pooled plasma: parent value = PIC1-dPEG24 and M2768 together
Experimental: […]. The six rats in Group 3 and Group 4 were further divided into two subgroups for serial blood collections at 10, 30 min and 1, 2, 3, 4, 6, 8, 24, and 48 hr. Blood was pooled by equal volume across animals at each time point, and aliquots (˜200 μL) of pooled blood were removed at each time point for total radioactivity, and the rest of blood samples were centrifuged to obtain plasma. Bile, urine, feces, and cage wash samples were collected up to 72 hr in bile duct cannulated (BDC) rats, and up to 168 hr in intact rats, and terminal blood samples were collected at the end of study (72 hr or 168 hr post-doses). The total radioactivity concentrations in the excreta, blood and plasma were determined by homogenization, combustion and/or liquid scintillation counting (LSC). The metabolite profiles and structure characterization were conducted in pooled plasma, urine, and bile samples using LC-UV/MS as well as radioactive detection. […].
The radioactive profiles of rat plasma samples for the low dose group and the high dose group were qualitatively similar.

[2] = test system: human umbilical vascular endothelial cell (HUVEC); assay: HUVEC basement membrane matrix (Geltrex) culture, LPS-stimulated angiogenesis; format: cell-based; details: no CellTrace dye, compared with 3-dimensional system
Experimental: FIG. 36. […] Cells were applied to a layer of basement membrane matrix containing LPS to stimulate angiogenesis and cultured for 18 hours at 37° C. Angiogenesis (nascent tube formation and sprouting) was observed by light microscopy.

[3] = IV 200 mg/ml (800 mg/kg)
[4] = 1 hour after IVT injection; compared to saline
MPO = assay: OVA/LPS rat asthma model, MPO in BALF (colorimetric); details: vs Day 24 asthma animals
free DNA = assay: OVA/LPS rat asthma model, free DNA in BALF (PicoGreen); details: prophylactic or rescue 160 mg/kg IV; vs asthma rats Days 22-24; not back to baseline
[5] = test system: OVA/LPS rat model of neutrophilic asthma; assay: OVA/LPS rat model of neutrophilic asthma, leucocyte quantification in BALF; details: Day 24

Sequence of ICAM-5 (Q9UMF0 32-924): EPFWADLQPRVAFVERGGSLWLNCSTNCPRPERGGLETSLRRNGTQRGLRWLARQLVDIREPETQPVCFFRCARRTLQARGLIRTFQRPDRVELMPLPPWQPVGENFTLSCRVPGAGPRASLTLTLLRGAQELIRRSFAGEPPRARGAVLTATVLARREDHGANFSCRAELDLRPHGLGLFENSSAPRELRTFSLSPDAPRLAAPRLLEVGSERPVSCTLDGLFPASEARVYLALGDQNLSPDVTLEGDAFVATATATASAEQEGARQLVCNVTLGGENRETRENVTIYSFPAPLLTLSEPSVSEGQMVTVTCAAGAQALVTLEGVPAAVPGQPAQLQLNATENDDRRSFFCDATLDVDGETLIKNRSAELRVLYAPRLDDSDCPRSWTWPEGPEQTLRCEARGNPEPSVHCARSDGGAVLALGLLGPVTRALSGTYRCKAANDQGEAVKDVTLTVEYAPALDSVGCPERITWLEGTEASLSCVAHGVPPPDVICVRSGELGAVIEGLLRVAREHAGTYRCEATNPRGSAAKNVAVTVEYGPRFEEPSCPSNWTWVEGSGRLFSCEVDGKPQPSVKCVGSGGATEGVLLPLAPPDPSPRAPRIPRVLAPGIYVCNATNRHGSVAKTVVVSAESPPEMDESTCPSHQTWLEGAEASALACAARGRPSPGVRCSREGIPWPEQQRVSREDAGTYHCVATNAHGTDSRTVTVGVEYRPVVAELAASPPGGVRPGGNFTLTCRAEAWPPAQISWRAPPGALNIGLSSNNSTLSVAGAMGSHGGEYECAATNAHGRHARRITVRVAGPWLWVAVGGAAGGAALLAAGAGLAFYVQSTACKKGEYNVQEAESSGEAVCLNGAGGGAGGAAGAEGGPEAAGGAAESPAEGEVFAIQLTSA

CC[C@H](C)[C@H](N)C(=O)N[C@@H](C)C(=O)N[C@@H](CC(C)C)C(=O)N[C@H](C(=O)N[C@@H](CC(C)C)C(=O)N[C@@H](CCC(=O)O)C(=O)N1CCC[C@H]1C(=O)N[C@H](C(=O)N[C@@H](CS)C(=O)N[C@@H](CS)C(=O)N[C@@H](CCC(N)=O)C(=O)N[C@@H](CCC(=O)O)C(=O)N[C@@H](CCCNC(=N)N)C(=O)N[C@@H](C)C(=O)N[C@@H](C)C(=O)NCCOCCOCCOCCOCCOCCOCCOCCOCCOCCOCCOCCOCCOCCOCCOCCOCCOCCOCCOCCOCCOCCOCCOCCOCCC(=O)O)[C@@H](C)CC)[C@@H](C)CC [RLS-0071]
binding to ICAM-5 (ICAM-5): superior binding to ICAM-5 | Adjusted Peak Distribution (ROI %) in Rat Plasma ([1]; Group 3 (20 mg/kg IV)): about 12% | Adjusted Peak Distribution (ROI %) in Rat Plasma ([1]; Group 4 (200 mg/kg IV)): ~16% | estimated mean concentration within 0-24 hr in AUC0-24 hr pooled plasma ([1]; high dose group (200 mg/kg IV)): 2225 ng Eq/g | estimated mean concentration within 0-24 hr in AUC0-24 hr pooled plasma ([1]; low dose group (20 mg/kg IV)): 187 ng Eq/g | angiogenesis (sprouting and tube formation) [2]: same results | RLS-0071 level in plasma after 24 hours [3]: undetectable | DAB staining of retinal tissue [4]: significant DAB signal | MPO levels in the BALF (MPO; prophylactic 160 mg/kg IV, p=0.12): reduction in MPO levels that did not reach statistical significance | MPO levels in the BALF (MPO; rescue 160 mg/kg IV, P=0.05): significant reduction in MPO levels | free DNA in the BALF (free DNA): a decrease in free DNA was observed | neutrophil accumulation in the BALF ([5]; prophylactic 160 mg/kg IV Days 21, 22, 23, P<0.03): significant reduction in neutrophil accumulation | neutrophils in the BALF ([5]; rescue 160 mg/kg IV Days 22 and 23, P<0.1844): reduction in neutrophils but did not reach statistical significance
